Data taken from US11766425B2, “Antibiotic combination therapies” (BIOVERSYS AG, priority 2019, dated 2023).
Where two headings read alike, the source gives them in different places.

Key:
Format in all cases: cell-based, Acinetobacter baumannii
A. baumannii 401046-18 = test: broth microdilution checkerboard MIC/synergy; conditions: for MIC: Acinetobacter baumannii, 40104618, strain 401046-18, read-out: MICs alone
Protocol: (§1) Checkerboards were performed according to the CLSI parameters used for microbroth dilution MIC5. CA-MHB, iron-depleted CA-MHB (ID-CA-MHB) or RPMI supplemented with 10% FCS medium were used as specified and ID-CA-MHB was prepared according to CLSI guidelines. […] FICI is calculated as follows: […]

A. baumannii 401255-18 = test: broth microdilution checkerboard MIC/synergy; conditions: for MIC: Acinetobacter baumannii, 40125518, strain 401255-18, read-out: MICs alone
Protocol: as §1

A. baumannii 402292-17 = test: broth microdilution checkerboard MIC/synergy; conditions: for MIC: Acinetobacter baumannii, 40229217, strain 402292-17, read-out: MICs alone
Protocol: as §1

A. baumannii 402608-17 = test: broth microdilution checkerboard MIC/synergy; conditions: for MIC: Acinetobacter baumannii, 40260817, strain 402608-17, read-out: MICs alone
Protocol: as §1

A. baumannii ACC00535 = test: broth microdilution checkerboard MIC/synergy; conditions: strain ACC00535; rifabutin/SPR741 in combination
Protocol: as §1

A. baumannii HUMC1 = test: broth microdilution checkerboard MIC/synergy; conditions: strain HUMC1
Protocol: as §1

A. baumannii IHMA1013816 = test: broth microdilution checkerboard MIC/synergy; conditions: strain IHMA1013816
Protocol: as §1

A. baumannii IHMA690517 = test: broth microdilution checkerboard MIC/synergy; conditions: strain IHMA690517
Protocol: as §1

A. baumannii IHMA863866 = test: broth microdilution checkerboard MIC/synergy; conditions: strain IHMA863866
Protocol: as §1

A. baumannii IHMA867231 = test: broth microdilution checkerboard MIC/synergy; conditions: for MIC: Acinetobacter baumannii, IHMA867231, strain IHMA867231, read-out: MICs alone
Protocol: as §1

A. baumannii IHMA919656 = test: broth microdilution checkerboard MIC/synergy; conditions: strain IHMA919656
Protocol: as §1

A. baumannii UNT087-1 = test: broth microdilution checkerboard MIC/synergy
Protocol: as §1

A. baumannii UNT091-1 = test: broth microdilution checkerboard MIC/synergy
Protocol: as §1

A. baumannii UNT191-1 = test: broth microdilution checkerboard MIC/synergy
Protocol: as §1

A. baumannii UNT238-1 = test: broth microdilution checkerboard MIC/synergy; conditions: strain UNT238-1
Protocol: as §1

A. baumannii UNT239-1 = test: broth microdilution checkerboard MIC/synergy; conditions: strain UNT239-1
Protocol: as §1

[1] = tested on: A. baumannii LAC-4 strain; test: broth microdilution checkerboard MIC/synergy; conditions: strain LAC-4
Protocol: as §1
The checkerboards were performed in CA-MHB or ID-CA-MHB for cefiderocol.

[2] = tested on: panel of MDR clinical isolates of A. baumannii
Protocol: as §1

[3] = antibiotic alone, rifabutin/colistin checkerboard, CA-MHB
[4] = rifabutin alone, rifabutin/SPR741 checkerboard
[5] = antibiotic alone, rifabutin/cefiderocol checkerboard
[6] = rifabutin/SPR741 in combination
[7] = rifabutin/cefiderocol in combination
[8] = rifabutin/colistin in combination, CA-MHB
[9] = rifabutin/cefiderocol in combination, ID-CA-MHB

`CO[C@H]1/C=C/O[C@@]2(C)Oc3c(C)c(O)c4c(c3C2=O)C2=NC3(CCN(CC(C)C)CC3)NC2=C(NC(=O)/C(C)=C\C=C\[C@H](C)[C@H](O)[C@@H](C)[C@@H](O)[C@@H](C)[C@H](OC(C)=O)[C@@H]1C)C4=O` [Rifabutin, rifabutin] showed an MIC (A. baumannii 401046-18; antibiotic alone, rifabutin/cefiderocol checkerboard, ID-CA-MHB) of 32 µg/mL, an MIC (A. baumannii 401046-18; [3]) of 64 µg/mL and an MIC (A. baumannii 401046-18; [4]) greater than 32 µg/mL. For the same compound, the “MICs combi / in combination” value (A. baumannii 401046-18; strain 401046-18, rifabutin/SPR741 in combination) was 2 mg/L, the MICs combi (A. baumannii 401046-18; strain 401046-18, rifabutin/cefiderocol in combination, ID-CA-MHB) was 16 mg/L and the MICs combi (A. baumannii 401046-18; strain 401046-18, rifabutin/colistin in combination, CA-MHB) was 1 mg/L. It also gave an MIC (A. baumannii 401255-18; [5]) of 32 µg/mL, an MIC (A. baumannii 401255-18; [3]) of 128 µg/mL and an MIC (A. baumannii 401255-18; [4]) greater than 32 µg/mL. The “MICs combi / in combination” value (A. baumannii 401255-18; strain 401255-18, rifabutin/SPR741 in combination) was 2 mg/L, the MICs combi (A. baumannii 401255-18; strain 401255-18, rifabutin/cefiderocol in combination) was 16 mg/L and the MICs combi (A. baumannii 401255-18; strain 401255-18, rifabutin/colistin in combination, CA-MHB) was 2 mg/L. The MIC (A. baumannii 402292-17; [5]) was greater than 128 µg/mL, the MIC (A. baumannii 402292-17; [3]) was greater than 128 µg/mL and the MIC (A. baumannii 402292-17; [4]) was greater than 32 µg/mL. For the same compound, the “MICs combi / in combination” value (A. baumannii 402292-17; strain 402292-17, rifabutin/SPR741 in combination) was 2 mg/L, the MICs combi (A. baumannii 402292-17; strain 402292-17, rifabutin/cefiderocol in combination) was 128 mg/L and the MICs combi (A. baumannii 402292-17; strain 402292-17, rifabutin/colistin in combination, CA-MHB) was 4 mg/L. It also gave an MIC (A. baumannii 402608-17; [5]) of 128 µg/mL, an MIC (A. baumannii 402608-17; [3]) of 128 µg/mL and an MIC (A. baumannii 402608-17; [4]) greater than 32 µg/mL. The “MICs combi / in combination” value (A. baumannii 402608-17; strain 402608-17, rifabutin/SPR741 in combination) was 2 mg/L, the MICs combi (A. baumannii 402608-17; strain 402608-17, rifabutin/cefiderocol in combination) was 32 mg/L and the MICs combi (A. baumannii 402608-17; strain 402608-17, rifabutin/colistin in combination, CA-MHB) was 2 mg/L. For the same compound, the “MICs combi / in combination” value (A. baumannii ACC00535) was 0.5 mg/L, the MICs alone (A. baumannii HUMC1; [3]) was 4 mg/L and the MICs alone (A. baumannii HUMC1; [4]) was 4 mg/L. For the same compound, the “MICs combi / in combination” value (A. baumannii HUMC1; [6]) was 0.25 mg/L, the MICs combi (A. baumannii HUMC1; [7]) was 4 mg/L and the MICs combi (A. baumannii HUMC1; [8]) was 0.125 mg/L. For the same compound, the “MICs combi / in combination” value (A. baumannii IHMA1013816; [6]) was 2 mg/L, the MICs combi (A. baumannii IHMA1013816; [7]) was 4 mg/L and the MICs combi (A. baumannii IHMA1013816; [8]) was 0.125 mg/L. The “MICs combi / in combination” value (A. baumannii IHMA690517; [6]) was 1 mg/L, the MICs combi (A. baumannii IHMA690517; [7]) was 4 mg/L and the MICs combi (A. baumannii IHMA690517; [8]) was 0.06 mg/L. For the same compound, the MICs alone (A. baumannii IHMA863866; [3]) was 4 mg/L, the MICs alone (A. baumannii IHMA863866; [4]) was 4 mg/L and the “MICs combi / in combination” value (A. baumannii IHMA863866; [6]) was 2 mg/L. For the same compound, the MICs combi (A. baumannii IHMA863866; [7]) was 0.125 mg/L, the MICs combi (A. baumannii IHMA863866; [8]) was 0.06 mg/L and the MIC (A. baumannii IHMA867231; [5]) was greater than 128 µg/mL. The MIC (A. baumannii IHMA867231; [3]) was greater than 128 µg/mL, the MIC (A. baumannii IHMA867231; [4]) was greater than 32 µg/mL and the “MICs combi / in combination” value (A. baumannii IHMA867231; strain IHMA867231, rifabutin/SPR741 in combination) was greater than 32 mg/L. For the same compound, the MICs combi (A. baumannii IHMA867231; strain IHMA867231, rifabutin/cefiderocol in combination) was 128 mg/L, the MICs combi (A. baumannii IHMA867231; strain IHMA867231, rifabutin/colistin in combination, CA-MHB) was 2 mg/L and the “MICs combi / in combination” value (A. baumannii IHMA919656; [6]) was 1 mg/L. It also gave an MICs combi (A. baumannii IHMA919656; [7]) of 4 mg/L, an MICs combi (A. baumannii IHMA919656; [8]) of 0.03 mg/L and an MIC (A. baumannii UNT087-1; Acinetobacter baumannii, UNT0871, strain UNT087-1, antibiotic alone, rifabutin/colistin checkerboard, CA-MHB, read-out: MICs alone) of 16 µg/mL. For the same compound, the “MICs combi / in combination” value (A. baumannii UNT087-1; strain UNT087-1, rifabutin/SPR741 in combination) was 0.25 mg/L, the MICs combi (A. baumannii UNT087-1; strain UNT087-1, rifabutin/cefiderocol in combination) was 4 mg/L and the MICs combi (A. baumannii UNT087-1; strain UNT087-1, rifabutin/colistin in combination, CA-MHB) was 0.5 mg/L. The MIC (A. baumannii UNT091-1; Acinetobacter baumannii, UNT0911, strain UNT091-1, rifabutin alone, rifabutin/SPR741 checkerboard, read-out: MICs alone) was 0.25 µg/mL, the “MICs combi / in combination” value (A. baumannii UNT091-1; strain UNT091-1, rifabutin/SPR741 in combination) was 0.06 mg/L and the MICs combi (A. baumannii UNT091-1; strain UNT091-1, rifabutin/cefiderocol in combination) was 2 mg/L. The MICs combi (A. baumannii UNT091-1; strain UNT091-1, rifabutin/colistin in combination, CA-MHB) was less than 0.03 mg/L, the MIC (A. baumannii UNT191-1; Acinetobacter baumannii, UNT1911, strain UNT191-1, antibiotic alone, rifabutin/colistin checkerboard, CA-MHB, read-out: MICs alone) was 16 µg/mL and the “MICs combi / in combination” value (A. baumannii UNT191-1; strain UNT191-1, rifabutin/SPR741 in combination) was 0.5 mg/L. The MICs combi (A. baumannii UNT191-1; strain UNT191-1, rifabutin/cefiderocol in combination, ID-CA-MHB) was 0.5 mg/L, the MICs combi (A. baumannii UNT191-1; strain UNT191-1, rifabutin/colistin in combination, CA-MHB) was less than 0.03 mg/L and the “MICs combi / in combination” value (A. baumannii UNT238-1; [6]) was 0.125 mg/L. The MICs combi (A. baumannii UNT238-1; [9]) was 4 mg/L, the MICs combi (A. baumannii UNT238-1; [8]) was 2 mg/L and the MICs alone (A. baumannii UNT239-1; [3]) was 4 mg/L. For the same compound, the MICs alone (A. baumannii UNT239-1; [4]) was 4 mg/L, the “MICs combi / in combination” value (A. baumannii UNT239-1; [6]) was 0.25 mg/L and the MICs combi (A. baumannii UNT239-1; [9]) was 1 mg/L. For the same compound, the MICs combi (A. baumannii UNT239-1; [8]) was 1 mg/L, the MICs alone [1, 3] was 4 mg/L and the MICs alone [1, 4] was 4 mg/L. The “MICs combi / in combination” value [1, 6] was 0.06 mg/L, the MICs combi [1, 9] was 1 mg/L and the MICs combi [1, 8] was 0.016 mg/L. The “rifabutin combination MICs” value ([2]; in combination with SPR741, most of the strains) was 0.125 to 2 mg/L and the “shift in rifabutin MIC” value ([2]; in combination with colistin, isolates with a mutation in the rpoB gene) was no less than 32 fold.
